# Read-outs that look alike come from different tables or passages of the source.
# How the values were obtained:
# Pseudomonas aeruginosa = test: Minimal inhibitory concentration (agar); assay type: cell-based; conditions: 48 h, nutrient agar, pH 7.0, 2 days, 37° C.
# Procedure: (§1) Medium N nutrient agar (pH 7.0, 2 days, 37° C.)
# (§2) MIC Minimal inhibitory concentration
# (§3) N nutrient agar (pH 7.0, 2 days, 37° C.)
# Shigella flexneri = test: Minimal inhibitory concentration (agar); assay type: cell-based; conditions: 48 h, nutrient agar, pH 7.0, 2 days, 37° C.
# Procedure: as §1, §2, §3
# Escherichia coli NIHJ = test: Minimal inhibitory concentration (agar); assay type: cell-based; conditions: 48 h, nutrient agar, pH 7.0, 2 days, 37° C.
# Trichophyton rubrum = test: Minimal inhibitory concentration (agar); assay type: cell-based; conditions: pH 6.4, 4 days, 27° C.
# Procedure: (§4) P potato agar (pH 6.4, 4 days, 27° C.)
# as §2
# (§5) Minimal inhibitory concentration was assayed by agar dilution method
# (§6) (potato agar, pH 6.4, 27° C., 4 days).
# Trichophyton schoenleini = test: Minimal inhibitory concentration (agar); assay type: cell-based; conditions: pH 6.4, 4 days, 27° C.
# Procedure: as §4, §2, §5, §6
# [1] = tested on: Acholeplasma laidlawii (A) PG8; test: Minimal inhibitory concentration (PPLO agar); assay type: cell-based; conditions: pH 7.8, 8 days, 37° C.
# Procedure: (§7) H Hokken PPLO agar (pH 7.8, 8 days, 37° C.)
# (§8) E Eiken PPLO agar (pH 7.8, 8 days, 37° C.)
# as §2
# [2] = tested on: Acholeplasma laidlawii (B) Bml; test: Minimal inhibitory concentration (PPLO agar); assay type: cell-based; conditions: 192 h, pH 7.8, 8 days, 37° C.
# Procedure: as §7, §8, §2
# [3] = tested on: Mycoplasma gallisepticum 333P (Spiramycin resistant); test: Minimal inhibitory concentration (PPLO agar); assay type: cell-based
# Procedure: as §7, §8, §2
# [4] = tested on: Mycoplasma gallisepticum KP-13; test: Minimal inhibitory concentration (PPLO agar); assay type: cell-based; conditions: Mycoplasmoides gallisepticum, KP13, 192 h, pH 7.8, 8 days, 37° C.
# Procedure: as §7, §8, §2
# [5] = tested on: Mycoplasma gallisepticum S-6; test: Minimal inhibitory concentration (PPLO agar); assay type: cell-based; conditions: Mycoplasmoides gallisepticum, S6, 192 h, pH 7.8, 8 days, 37° C.
# Procedure: as §7, §8, §2
# Aspergillus niger = test: Minimal inhibitory concentration (agar); assay type: cell-based; conditions: Aspergillus niger, 96 h; potato agar, pH 6.4, 4 days, 27° C.; read-out: MIC
# Procedure: as §5, §6, §4
# [6] = tested on: Tricophyton metagorphytes; test: Treatment of dermatomycosis at the back of guinea pigs; assay type: in vivo; conditions: 0.01-1% solution in propyleneglycol-ethanol (3:1 v/v), once daily for 8 days
# Mycoplasma gallisepticum [7] = test: Therapeutic effect on chronic respiratory disease of chickens; assay type: in vivo
# [8] = tested on: fungi belonging to the genus Trichophyton; test: Growth inhibition (text summary of Table 1); assay type: cell-based; conditions: 96 h, some fungi of the genus, read-out: concentration at which growth is inhibited
# Procedure: | P potato agar (pH 6.4, 4 days, 27° C.)
# Mycoplasma gallisepticum [9] = test: Growth inhibition (text summary of Table 1); assay type: cell-based; conditions: Mycoplasmoides gallisepticum, 192 h; read-out: concentration at which growth is inhibited
# Procedure: as §7, §8
# [10] = tested on: Escherichia coli NIHJ (JC-2); test: Minimal inhibitory concentration (agar); assay type: cell-based; conditions: 48 h, pH 7, nutrient agar, pH 7.0, 2 days, 37° C.
# Procedure: as §1, §2, §3
# Piricularia oryzae = test: microbe, parasite or virus in culture; assay type: cell-based; conditions: 96 h, pH 6.4, potato agar, pH 6.4, 4 days, 27° C.
# Trichophyton pedis 804 = test: Minimal inhibitory concentration (agar); assay type: cell-based; conditions: Trichophyton pedis, 804, 96 h, pH 6.4, potato agar, pH 6.4, 4 days, 27° C.; read-out: MIC
# Trichophyton violaceum = test: Minimal inhibitory concentration (agar); assay type: cell-based; conditions: Trichophyton violaceum, 96 h, pH 6.4, potato agar, pH 6.4, 4 days, 27° C.; read-out: MIC
# [11] = tested on: parasite of the genus Tricophyton; test: Therapeutic effect on infectious diseases in guinea pigs and cattle; assay type: in vivo; conditions: concentration 0.01-1%
# Procedure: When dermatomycosis of cattle caused by mass infection of Trichophyton verrucosum is treated with nanaomycin A, nanaomycin A is dissolved or suspended in a suitable carrier, for example, olive oil, and is coated on the affected part directly with or without removal of the scales. […] The results obtained by once-coating of nanaomycin A and by twice-coating (the second coating is carried out a week after the first coating) are shown in Tables 2 and 3, respectively.
# [12] = Trichophyton rubrum, 96 h, pH 6.4, potato agar, read-out: MIC
# [13] = Trichophyton, 96 h, pH 6.4, potato agar, read-out: MIC
smiles,measurement,setting,value
"CC1OC(CC(=O)O)CC2=C1C(=O)c1c(O)cccc1C2=O (stereo not drawn) [Nanaomycin A, nanaomycin A]",MIC,Pseudomonas aeruginosa,500 mg/L
same,MIC,Shigella flexneri,31.3 mg/L
same,MIC,Escherichia coli NIHJ,31.3 mg/L
same,MIC,Trichophyton rubrum; [12],< 0.2 mg/L
same,MIC,Trichophyton rubrum; potato agar,< 0.1 mg/L
same,MIC,Trichophyton schoenleini; [13],< 0.2 mg/L
same,MIC,Trichophyton schoenleini; potato agar,0.2 mg/L
same,MIC,"[1]; Acholeplasma laidlawii, 192 h, Hokken PPLO agar, read-out: MIC",> 25 mg/L
same,MIC,[1]; Eiken PPLO agar,> 25 mg/L
same,MIC,"[2]; pH 7.8, Eiken PPLO agar",> 25 mg/L
same,MIC,"[2]; pH 7.8, Hokken PPLO agar",25 mg/L
same,MIC,"[3]; Eiken PPLO agar, pH 7.8, 8 days, 37° C.",< 0.013 mg/L
same,MIC,"[3]; Mycoplasmoides gallisepticum, 192 h, pH 7.8",< 0.013 mg/L
same,activity against spiramycin-resistant Mycoplasma gallisepticum,[3]; in words,strong activity
same,MIC,"[4]; pH 7.8, Eiken PPLO agar",0.05 mg/L
same,MIC,"[4]; pH 7.8, Hokken PPLO agar",< 0.013 mg/L
same,MIC,"[5]; pH 7.8, Hokken PPLO agar",< 0.013 mg/L
same,MIC,"[5]; Eiken PPLO agar, read-out: MIC",0.1 mg/L
same,MIC,Aspergillus niger,25 mg/L
same,therapeutic effect on erythema and scales,[6],excellent therapeutic effect
same,therapeutic effect on chronic respiratory disease,Mycoplasma gallisepticum [7],exhibits therapeutic effect
same,MIC,[8],≤ 3.1 mg/L
same,MIC,Mycoplasma gallisepticum [9],≤ 0.1 mg/L
"CC(=O)Oc1cccc2c1C(=O)C1=C(CC(CC(=O)O)OC1C)C2=O (stereo not drawn) [Acetylnanaomycin A, acetylnanaomycin A]",MIC,[10],> 100 mg/L
same,MIC,Trichophyton rubrum; [12],< 0.2 mg/L
same,MIC,Trichophyton schoenleini; [13],< 0.2 mg/L
same,MIC,Piricularia oryzae,0.8 mg/L
same,MIC,Trichophyton pedis 804,0.8 mg/L
same,MIC,Trichophyton violaceum,0.8 mg/L
same,therapeutic effect on Trichophyton infectious diseases,[11],superior therapeutic effect to nanaomycin A

# Source: patent US4324728A, “Compound nanaomycin A and derivatives thereof and a process for producing the same” (The Kitasato Institute, priority 1976, dated 1982)
